Experimental data reported in PubChem BioAssay AID179 (DTP/NCI, 2004).
Active and inactive are the calls of the source.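 The calls were made as follows: active = compounds giving half or more protection of infected cells from virus-caused growth loss, again on retest; inactive = the rest.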 Where a SMILES comes first, the peptide text is derived from it.

Test system: CEM cells HIV-1 protection, formazan growth assay
Assay: NCI AIDS Antiviral Assay
Settings: for IC50: measured here: growth of uninfected CEM cells
Outline: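 Human CEM cells, uninfected and HIV-1-infected, exposed to five drug concentrations; growth measured by soluble formazan assay and scored as percent protection from infection, with protecting compounds retested.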

Structure (SMILES)	EC50	IC50	outcome
CCN=C(N)C(C)SS(=O)(=O)O (stereo unspecified)	> 200 µM	170 µM	
O=C1c2ccccc2-c2c(Br)c3ccccc3c(=O)n21	> 100 µM	69.2 µM	
OC(c1ccoc1)c1cc2ccccc2s1 (stereo unspecified)	> 200 µM	44.7 µM	
COc1ccc(N2C(=O)[C@@H]3[C@@H]4CC(C)CC[C@@H]4c4c([nH]c5ccccc45)[C@@H]3C2=O)cc1 (stereo partly specified)	> 3.31 µM	> 3.31 µM	
C/C(=N/NC(=S)N1CCCC1)c1cccc(/C(C)=N\NC(=S)N2CCCC2)n1	> 2 µM	0.123 µM	
O=C1NC(O)c2cc(CO)ccc2O1 (stereo unspecified)	> 200 µM	95.5 µM	
COCc1ccc2c(c1)C(O)NC(=O)O2 (stereo unspecified)	> 200 µM	58.9 µM	
COc1ccc(-c2cc(-c3ccc(Cl)cc3)n(C3OC(CO)C(O)C(O)C3O)c(=S)c2C#N)cc1 (stereo unspecified)	> 200 µM	7.76 µM	
O=C(O)C1CCCN1C(=O)c1cc(Cl)ccn1 (stereo unspecified)	> 200 µM	> 200 µM	
CCOC(=O)C1(Br)C(c2ccccc2)NC(=O)N(C2OC(COC(=O)c3ccccc3)C(OC(=O)c3ccccc3)C2OC(=O)c2ccccc2)C1(C)Br (stereo unspecified)	> 15.8 µM	> 15.8 µM	
CCOC(=O)C(C(=O)OCC)=C1C=C(c2ccccc2)c2ccccc21			inactive
COC12CCC(C(C(=O)c3ccccc3)=C1C(=O)c1ccccc1)C(O)C2 (stereo unspecified)	> 501 µM	> 501 µM	
Cc1nc2ccc(N=NN(C)C)cc2[nH]1	> 200 µM	> 200 µM	
CC1CC(=O)c2c(ccc3c2C(=O)c2cccc(O)c2C3=O)C1 (stereo unspecified)			inactive
CCOC(=O)C1=CN(Cc2ccccc2)C2ON=C(c3ccc(Cl)cc3)C2C1 (stereo unspecified)	> 200 µM	31.6 µM	
COC(=O)c1noc2c1CSC1=C2CS(=O)(=O)c2ccccc21	> 200 µM	> 200 µM	
Cc1cc2c(-c3ccccc3)cc(=O)[nH]c2cc1N	186 µM	> 200 µM	
Nc1nc(=S)[nH]c(C(=O)Nc2nccs2)c1-c1ccccc1	> 21.9 µM	> 21.9 µM	
C=CC1ON(C)CCc2cc(OC)c(OC)cc21 (stereo unspecified)	162 µM	> 200 µM	
COc1ccc(CN2CCC/C=C/CC(Cl)(Cl)C2=O)cc1	> 110 µM	57.5 µM	
O=C(NNC(=O)c1cc(/C=C/c2cccc([N+](=O)[O-])c2)[nH]c(=S)n1)Nc1ccc(Cl)cc1	> 11 µM	> 11 µM	
COc1cc(/C=N\NS(=O)(=O)c2ccc(N)cc2)ccc1O	> 295 µM	209 µM	

Structure (SMILES)	EC50	IC50	outcome
Cc1ccc(C)c(NC(=O)C(=O)C2C(=O)C3=C(CC2(C)C)Nc2ccccc2S3)c1 (stereo unspecified)	> 85.1 µM	> 85.1 µM	
COc1ccc(C(=O)/C=C/c2ccc(OCC(=O)N3CCN(c4ccccc4)CC3)cc2)cc1	> 29.5 µM	> 29.5 µM	
O=C(O)CCN1c2ccccc2Sc2ccccc21	> 479 µM	170 µM	
CCN1CCC(CNC(=O)c2ccc(N)cc2)N1CC (stereo unspecified)	> 200 µM	> 200 µM	
CCOC(=O)C(=O)Nc1cc(Cl)ccc1Cl	> 363 µM	> 363 µM	
CCNC(=O)OCCCCC=C(c1cc(Cl)c(OC)c(C(=O)OC)c1)c1cc(Cl)c(OC)c(C(=O)OC)c1	> 200 µM	14.5 µM	
COC(=O)[C@@H]1CCCN1CCN1CCC[C@H]1C(=O)OC	> 200 µM	> 200 µM	
Cc1ccc(S[C@@](C=O)(NC(=O)OCc2ccccc2)C(F)(F)F)cc1			inactive
Cc1c2ccccc2nc(CSC#N)[n+]1[O-]	> 200 µM	36.3 µM	
N#C/C(=C/c1ccc2c(c1)OCO2)C(=O)c1ccccc1	> 36.3 µM	> 36.3 µM	
C=C1C(OC(C)=O)[C@@]23CC[C@@H]4C(C)(C(=O)OC)CCCC4(C)[C@@H]2CC[C@@H]1C3 (stereo partly specified)	> 200 µM	51.3 µM	
O=C1CC(C2(O)C(=O)Nc3ccc([N+](=O)[O-])cc32)c2ccccc21 (stereo unspecified)	> 55 µM	> 55 µM	
Cn1c(-c2cccs2)cc(-c2cccs2)c1-c1ccsc1	> 20 µM	11.2 µM	
O=[N+]([O-])c1ccc(Cc2ccccc2)cc1	> 63.1 µM	> 63.1 µM	
CCCCNC(=O)c1cc(NC(=O)c2ccc(C(=O)Nc3cc(C(=O)NCCCC)cc(C4N=CCN4)c3)cc2)cc(C2=NCCN2)c1 (stereo unspecified)	13.2 µM	> 100 µM	
Cc1ccccc1Nc1nc2c(s1)C(=O)c1ccccc1C2=O			inactive
Nc1nnc2nc(CC(=O)c3cccc([N+](=O)[O-])c3)/c(=C/C(=O)c3cccc([N+](=O)[O-])c3)n12	> 16.2 µM	> 16.2 µM	
CC1COC(C)(C)P(c2ccccc2)C1 (stereo unspecified)	> 1120 µM	> 1120 µM	
CCN1CCCC(C#N)(c2ccccc2)CC1 (stereo unspecified)	> 933 µM	501 µM	
CN1CN(c2ccccc2)C2(CCN(C(=O)OC(C)(C)C)CC2)C1=O	> 100 µM	> 100 µM	
O=Cc1cn(CCCCCn2cc(C=O)c3ccccc32)c2ccccc12	> 200 µM	> 200 µM	
CC(N)C(=O)NCC(=O)NC(CO)C(=O)NC(CCC(N)=O)C(=O)NC(CCC(=O)O)C(=O)N1CCCC1C(=O)NC(CCCCN)C(=O)NC(CCC(=O)O)C(=O)NC(CCC(N)=O)C(=O)NC(CO)C(=O)NC(CO)C(=O)NC(Cc1ccc(O)cc1)C(=O)NC(CO)C(=O)NC(Cc1cnc[nH]1)C(=O)NC(CO)C(=O)O (stereo unspecified) (H-AGSQEPKEQSSYSHS-OH; configuration not given here)	> 100 µM	> 100 µM	

Structure (SMILES)	EC50	IC50	outcome
Cc1cn([C@H]2[C@@H](CO)C[C@H]2O)c(=O)[nH]c1=O	> 200 µM	> 200 µM	
CC1(C)S[C@@H]2[C@H](NC(=O)C3(N)CCCCC3)C(=O)N2[C@H]1C(=O)O	> 200 µM	> 200 µM	
COc1ccccc1N=C1SCC(=O)N1Cc1ccco1	> 135 µM	89.1 µM	
CC1=N/C(=C\c2ccccc2Br)C(=O)O1	> 97.7 µM	> 97.7 µM	
O=C(O)c1cccc2cccc(-c3c4ccc(=O)c(O)c-4oc4c(O)c(O)ccc34)c12	29.5 µM	33.1 µM	
COc1ccc(N2C(=O)C(=O)C3(CCCCC3)C2=O)c2ccccc12	> 200 µM	> 200 µM	
CC(C)N(C(=O)C12C3C4C1C1C2C3C41C(=O)N(C(C)C)C(C)C)C(C)C (stereo unspecified)	> 72.4 µM	> 72.4 µM	
CC(=O)c1ccc(C(O)C(CO)NC(=O)C(Cl)Cl)cc1 (stereo unspecified)	> 200 µM	> 200 µM	
CS(=O)(=O)N1CC(CCl)c2ccc([N+](=O)[O-])cc21 (stereo unspecified)	91.2 µM	> 200 µM	
Nc1nc(-c2ccccc2)cc(-c2ccc(F)cc2)c1-c1ccc(Cl)cc1	> 200 µM	132 µM	
CCOP(=O)(OCC)C(C)(C)N(C)/C(F)=N/C(F)(F)F	> 200 µM	> 200 µM	
Fc1cccc(Cl)c1C1SCc2nc3ccccc3n21 (stereo unspecified)	0.0479 µM	3.8 µM	
CCCc1cc(=O)oc2c3c(cc(OC)c12)O[C@H](C)C(C)C3=O (stereo partly specified)	> 200 µM	58.9 µM	
COc1ccc([N+](=O)[O-])c2c(NCCCN(C)C)ccnc12	> 200 µM	4.47 µM	
C/C(=C\C=C\C(C)C)C1CCC(C)(NC=O)CC1 (stereo unspecified)			inactive
COc1c(C)c(C/C=C(\C)CC/C=C(\C)CCC=C(C)C)c(OC)c(OC)c1OC	> 200 µM	> 200 µM	
CCN(CC)C(=O)C[n+]1c2ccccc2n2cc(N)ccc21	> 200 µM	> 200 µM	
CC(=O)NCC1OC2COC(c3ccccc3)OC2C2N=C(c3ccccc3)OC12 (stereo unspecified)			inactive
Oc1c(CN2CCCCC2)ccc2ccccc12	> 200 µM	186 µM	
c1ccc(-c2nc3nc4ccccc4nc3nc2-c2cccnc2)nc1	> 8.13 µM	> 8.13 µM	
CC(NC(=O)OC(C)(C)C)C(=O)C(N)=O (stereo unspecified)	> 200 µM	> 200 µM	
COc1cccc(NC(=O)C(=O)C(C(=O)c2ccccc2F)C2OC(=O)c3ccccc32)c1 (stereo unspecified)	> 288 µM	10.7 µM	

Structure (SMILES)	EC50	IC50	outcome
CC1=C(C(=O)O)CCC2(C)C3=C(CCC12)C(=O)C(C(C)C)=CC3=O (stereo unspecified)	> 200 µM	12.3 µM	
O=C1CCCN1CO	> 200 µM	> 200 µM	
COc1cc2c(c(C)c1O)[C@H]1COc3ccccc3[C@H]1O2	> 87.1 µM	15.8 µM	
CCOC(=O)N/N=C(\CC)NO	> 200 µM	> 200 µM	
CCCCOC(=O)C(=O)C(CCC(=O)c1ccc(C)cc1)C(=O)C=C(C)C (stereo unspecified)	> 69.2 µM	> 69.2 µM	
S=C(/N=c1/sc(Nc2ccccc2)nc2sc3c(c12)CCCC3)Nc1ccccc1	> 126 µM	> 126 µM	
CC1C(c2ccc(F)cc2)c2cc3c(cc2OC1N1CCCC1)OCO3 (stereo unspecified)	> 200 µM	129 µM	
Cc1ccc(S(=O)(=O)c2ccc([N+](=O)[O-])cc2)cc1			inactive
CCCCc1ccc(Nc2nc(Cl)c3c(ncn3COCCOC(C)=O)n2)cc1	> 200 µM	33.1 µM	
O=C1NC2OCC(O)C(O)C2O1 (stereo unspecified)	> 200 µM	> 200 µM	
O=C(O)CC1CC2CC(=O)C1C2 (stereo unspecified)	> 200 µM	> 200 µM	
CCC(C)C(NC(=O)c1ccccc1SC(=O)CCCC[n+]1ccccc1)C(N)=O (stereo unspecified)	> 35.5 µM	4.07 µM	
CCNC(=S)N/N=C(/c1ccc(OC)cc1)P(=O)(OCC)OCC	> 50.1 µM	> 50.1 µM	
O=C(O)c1ccc(N=NC2Sc3nc4ccccc4n3C2=O)cc1 (stereo unspecified)	> 200 µM	> 200 µM	
Nc1ncnc2c1ncn2C1OC(CO)CC1O (stereo unspecified)			inactive
O=C(O)C1CCC(c2ccc(Cl)cc2)N1 (stereo unspecified)	> 200 µM	> 200 µM	
c1ccc(-c2c3c(nc4c2CC[C@H]4NC2=NCCN2)[C@@H](NC2=NCCN2)CC3)cc1	> 200 µM	> 200 µM	
CCC(=O)C(C)C(=O)C(=O)NCCNC(=O)C(=O)C(C)C(=O)CC (stereo unspecified)			inactive
C[N+](C)([O-])CCNC(=O)c1cccc2cc3ccccc3nc12			inactive
CCc1ccc(Cc2ccc(CC)c(NC(=O)C(=O)C3NC(=S)NC3=O)c2CC)c(CC)c1NC(=O)C(=O)C1NC(=S)NC1=O (stereo unspecified)	> 15.1 µM	> 15.1 µM	
COc1ccc(OC)c(NS(=O)(=O)c2ccc3nc(C)n(NS(=O)(=O)c4cc(OC)ccc4OC)c(=O)c3c2)c1	> 200 µM	43.7 µM	
O=C(Nn1c(=S)[nH][nH]c1=S)c1ccccc1	> 200 µM	> 200 µM	
